Experimental data taken from patent US12459951B2, “Compounds that interact with RAS superfamily proteins for treatment of cancers, inflammatory diseases, rasopathies, and fibrotic disease” (SHY Therapeutics, LLC, priority 2022, dated 2025).
Like-named read-outs stand apart in the source and are kept apart here.

How the values were obtained:
[1] = test system: Akt phosphorylation; test: Akt Phosphorylation Assay (western blot), Panc-1; format: cell-based, human; settings: at 10 μM, * = activation
Method in brief: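 Panc-1 (KRas G12D) cells were treated with compound at 10 μM final (0.3% DMSO) for 6 h at 37 °C, or with serial dilutions for IC50. Cells were either serum-starved overnight in 0.5% FBS and then stimulated with 1.5 ng/ml EGF for 15 min, or kept in 10% FBS without stimulation. Akt Ser473 phosphorylation in lysates was read by western blot.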

[2] = test system: IL6; test: IL-6 Quantification Assay (ELISA), LPS-stimulated RAW 264.7; format: cell-based; parameters: inhibition: dose or concentration left out as unconfirmed; settings: Mus musculus, RAW264.7; read-out: IL-6: % inh.
[3] = test system: MiaPaca-2 (expressing KRAS G12C mutant); test: Proliferation Assay (Cell Viability Assay); format: cell-based; settings: Homo sapiens, MIA PaCa-2
Method in brief: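 MiaPaca-2 cells (KRAS G12C) were grown in DMEM-high glucose with 10% FBS, seeded at 2000–5000 cells/well and cultured overnight. Compounds were added at 10 μM final, or as serial dilutions for IC50, in 0.3% DMSO/10% FBS for 2–4 days at 37 °C, 5% CO2. Viability was measured with CellTiter 96 Aqueous One and % inhibition calculated.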

[4] = read-out: Proliferation in MiaPaca-2: IC50

Structure (SMILES) | % inh of Akt phosphorylation in Panc-1 [1] | inhibition [2] | IC50 [3, 4] | IC50 ([3]; Proliferation assay, MiaPaca-2, read-out: MiaPaca-2 IC50 (nM) Pancreatic)
CO[C@H]1CC[C@@H](Nc2nc(-c3nccn3C)nn3cc(-c4cccnc4)c(-c4ccccc4)c23)C1 (racemic) [Compound 193, rac N-((1R,3S)-3-Methoxycyclopentyl)-2-(1-methyl-1H-imidazol-2-yl)-5-phenyl-6-(pyridin-3-yl)pyrrolo[2,1-f][1,2,4]triazin-4-amine] | D* (85-100% activation) | 75 to 100% | > 1000 nM | 
COCCCNC(=O)c1c(-c2ccn(C)n2)cn2nc(-c3nccn3C)nc(N[C@H]3CC[C@H](OC)C3)c12 (racemic) [Compound 184, rac 4-(((1S,3S)-3-methoxycyclo-pentyl)amino)-N-(3-methoxypropyl)-2-(1-methyl-1H-imidazol-2-yl)-6-(1-methyl-1H-pyrazol-3-yl)pyrrolo[2,1-f][1,2,4]triazine-5-carboxamide] | A* (1-25% activation) | 25 to 49% | > 1000 nM | 
Cc1c(-c2ccn(C)n2)cn2nc(-c3nccn3C)nc(Nc3cc4c(cn3)CCO4)c12 [Compound 221, N-(5-Methyl-2-(1-methyl-1H-imidazol-2-yl)-6-(1-methyl-1H-pyrazol-3-yl)pyrrolo[2,1-f][1,2,4]triazin-4-yl)-2,3-dihydrofuro[3,2-c]pyridin-6-amine] | D* (85-100% activation) | 25 to 49% | < 150 nM | 1 to 10 nM
COCCNC(=O)c1c(-c2ccn(C)n2)cn2nc(-c3nccn3C)nc(N[C@H]3CC[C@H](OC)C3)c12 (racemic) [Compound 183, rac 4-(((1S,3S)-3-Methoxycyclo-pentyl)amino)-N-(2-methoxyethyl)-2-(1-methyl-1H-imidazol-2-yl)-6-(1-methyl-1H-pyrazol-3-yl)pyrrolo[2,1-f][1,2,4]triazine-5-carboxamide] | A (1-25% inhibition) | 25 to 49% | > 1000 nM | 
COc1ccc(Nc2nc(-c3nccn3C)nn3cc(-c4ccn(C)n4)c(C)c23)nc1 [Compound 224, N-(5-Methoxypyridin-2-yl)-5-methyl-2-(1-methyl-1H-imidazol-2-yl)-6-(1-methyl-1H-pyrazol-3-yl)pyrrolo[2,1-f][1,2,4]triazin-4-amine] | D* (85-100% activation) | 50 to 74% | < 150 nM | 
CO[C@H]1C[C@H](Nc2nc(-c3nccn3C)nn3cc(-c4cccnc4)c(-c4ccccc4)c23)C1 [Compound 192, N-((1r,3r)-3-Methoxycyclobutyl)-2-(1-methyl-1H-imidazol-2-yl)-5-phenyl-6-(pyridin-3-yl)pyrrolo[2,1-f][1,2,4]triazin-4-amine] | D* (85-100% activation) | 75 to 100% | > 1000 nM | 
CO[C@H]1C[C@H](Nc2nc(-c3nccn3C)nn3cc(-c4cccc5c4CCO5)c(-c4ccccc4)c23)C1 [Compound 210, 6-(2,3-Dihydrobenzofuran-4-yl)-N-((1r,3r)-3-methoxycyclobutyl)-2-(1-methyl-1H-imidazol-2-yl)-5-phenylpyrrolo[2,1-f][1,2,4]triazin-4-amine] | D (85-100% inhibition) | 75 to 100% | 510 to 1000 nM | 
COc1ccnc(Nc2nc(-c3nccn3C)nn3cc(-c4ccn(C)n4)c(C(=O)N4CCCC4)c23)c1 [Compound 178, (4-((4-Methoxypyridin-2-yl)amino)-2-(1-methyl-1H-imidazol-2-yl)-6-(1-methyl-1H-pyrazol-3-yl)pyrrolo[2,1-f][1,2,4]triazin-5-yl)(pyrrolidin-1-yl)methanone] | D* (85-100% activation) | 50 to 74% | > 1000 nM | 
COc1ccnc(Nc2nc(-c3nccn3CCN)nn3cc(-c4ccn(C)n4)c(C)c23)c1 [Compound 188, 2-(1-(2-Aminoethyl)-1H-imidazol-2-yl)-N-(4-methoxypyridin-2-yl)-5-methyl-6-(1-methyl-1H-pyrazol-3-yl)pyrrolo[2,1-f][1,2,4]triazin-4-amine] | A* (1-25% activation) | 50 to 74% | > 1000 nM | 
CCNC(=O)c1c(-c2ccn(C)n2)cn2nc(-c3nccn3C)nc(Nc3cc(OC)ccn3)c12 [Compound 173, N-Ethyl-4-((4-methoxypyridin-2-yl)amino)-2-(1-methyl-1H-imidazol-2-yl)-6-(1-methyl-1H-pyrazol-3-yl)pyrrolo[2,1-f][1,2,4]triazine-5-carboxamide] | C* (46-84% activation) | 75 to 100% | 510 to 1000 nM | 
Cc1c(-c2ccn(C)n2)cn2nc(-c3nccn3C)nc(Nc3ccc(OCC(F)(F)F)cn3)c12 [Compound 230, 5-Methyl-2-(1-methyl-1H-imidazol-2-yl)-6-(1-methyl-1H-pyrazol-3-yl)-N-(5-(2,2,2-trifluoroethoxy)pyridin-2-yl)pyrrolo[2,1-f][1,2,4]triazin-4-amine] | D* (85-100% activation) | 50 to 74% | < 150 nM | 
COc1ccnc(Nc2nc(-c3nccn3C)nn3cc(-c4ccn(C)n4)c(C(=O)N4CCOCC4)c23)c1 [Compound 179, (4-((4-Methoxypyridin-2-yl)amino)-2-(1-methyl-1H-imidazol-2-yl)-6-(1-methyl-1H-pyrazol-3-yl)pyrrolo[2,1-f][1,2,4]triazin-5-yl)(morpho-lino)methanone] | D* (85-100% activation) | 50 to 74% | > 1000 nM | 
COc1cccc(-c2cn3nc(-c4nccn4C)nc(O)c3c2C)c1Cl [Compound 15, 6-(2-Chloro-3-methoxyphenyl)-5-methyl-2-(1-methyl-1H-imidazol-2-yl)pyrrolo[2,1-f][1,2,4]triazin-4-ol] | 0 (0% inhibition) | 50 to 74% | > 1000 nM | 
COCCNc1nc(-c2nccn2C)nn2cc(-c3cccnc3)c(-c3ccccc3)c12 [Compound 195, N-(2-Methoxyethyl)-2-(1-methyl-1H-imidazol-2-yl)-5-phenyl-6-(pyridin-3-yl)pyrrolo[2,1-f][1,2,4]triazin-4-amine] | D* (85-100% activation) | 50 to 74% | > 1000 nM | 
COc1ccnc(Nc2nc(-c3nccn3C)nn3cc(-c4ccn(C)n4)c(C(=O)NC4CC4)c23)c1 [Compound 175, N-Cyclopropyl-4-((4-methoxypyridin-2-yl)amino)-2-(1-methyl-1H-imidazol-2-yl)-6-(1-methyl-1H-pyrazol-3-yl)pyrrolo[2,1-f][1,2,4]triazine-5-carboxamide] | D* (85-100% activation) | 75 to 100% | 150 to 500 nM | 
COc1ccc(N(C)c2nc(-c3nccn3C)nn3cc(-c4ccn(C)n4)c(C)c23)nc1 [Compound 225, N-(5-Methoxypyridin-2-yl)-N,5-dimethyl-2-(1-methyl-1H-imidazol-2-yl)-6-(1-methyl-1H-pyrazol-3-yl)pyrrolo[2,1-f][1,2,4]triazin-4-amine] | A* (1-25% activation) | 0% | > 1000 nM | 
